The experiment concerns the target hNav1.3 (Homo sapiens, UniProt Q9NY46). The experiment in a line: cell-based. Particulars: for IC50: IonWorks Quattro, read-out: IWQ Use Nav1.3; for Nav1.7/Nav1.3: ratio of IWQ Use IC50 values. A general note: The patch-clamp technique gives a direct electrical read-out from membranes.

Molecules are shown by their SMILES. Like-named read-outs stand apart in the source and are kept apart here. Positions of bridges follow the written chain, without caps; N, C: chain ends. Residues, ends and D or L forms follow the SMILES beside them.

Sequence of hNav1.3 (Q9NY46 whole entry, looked up): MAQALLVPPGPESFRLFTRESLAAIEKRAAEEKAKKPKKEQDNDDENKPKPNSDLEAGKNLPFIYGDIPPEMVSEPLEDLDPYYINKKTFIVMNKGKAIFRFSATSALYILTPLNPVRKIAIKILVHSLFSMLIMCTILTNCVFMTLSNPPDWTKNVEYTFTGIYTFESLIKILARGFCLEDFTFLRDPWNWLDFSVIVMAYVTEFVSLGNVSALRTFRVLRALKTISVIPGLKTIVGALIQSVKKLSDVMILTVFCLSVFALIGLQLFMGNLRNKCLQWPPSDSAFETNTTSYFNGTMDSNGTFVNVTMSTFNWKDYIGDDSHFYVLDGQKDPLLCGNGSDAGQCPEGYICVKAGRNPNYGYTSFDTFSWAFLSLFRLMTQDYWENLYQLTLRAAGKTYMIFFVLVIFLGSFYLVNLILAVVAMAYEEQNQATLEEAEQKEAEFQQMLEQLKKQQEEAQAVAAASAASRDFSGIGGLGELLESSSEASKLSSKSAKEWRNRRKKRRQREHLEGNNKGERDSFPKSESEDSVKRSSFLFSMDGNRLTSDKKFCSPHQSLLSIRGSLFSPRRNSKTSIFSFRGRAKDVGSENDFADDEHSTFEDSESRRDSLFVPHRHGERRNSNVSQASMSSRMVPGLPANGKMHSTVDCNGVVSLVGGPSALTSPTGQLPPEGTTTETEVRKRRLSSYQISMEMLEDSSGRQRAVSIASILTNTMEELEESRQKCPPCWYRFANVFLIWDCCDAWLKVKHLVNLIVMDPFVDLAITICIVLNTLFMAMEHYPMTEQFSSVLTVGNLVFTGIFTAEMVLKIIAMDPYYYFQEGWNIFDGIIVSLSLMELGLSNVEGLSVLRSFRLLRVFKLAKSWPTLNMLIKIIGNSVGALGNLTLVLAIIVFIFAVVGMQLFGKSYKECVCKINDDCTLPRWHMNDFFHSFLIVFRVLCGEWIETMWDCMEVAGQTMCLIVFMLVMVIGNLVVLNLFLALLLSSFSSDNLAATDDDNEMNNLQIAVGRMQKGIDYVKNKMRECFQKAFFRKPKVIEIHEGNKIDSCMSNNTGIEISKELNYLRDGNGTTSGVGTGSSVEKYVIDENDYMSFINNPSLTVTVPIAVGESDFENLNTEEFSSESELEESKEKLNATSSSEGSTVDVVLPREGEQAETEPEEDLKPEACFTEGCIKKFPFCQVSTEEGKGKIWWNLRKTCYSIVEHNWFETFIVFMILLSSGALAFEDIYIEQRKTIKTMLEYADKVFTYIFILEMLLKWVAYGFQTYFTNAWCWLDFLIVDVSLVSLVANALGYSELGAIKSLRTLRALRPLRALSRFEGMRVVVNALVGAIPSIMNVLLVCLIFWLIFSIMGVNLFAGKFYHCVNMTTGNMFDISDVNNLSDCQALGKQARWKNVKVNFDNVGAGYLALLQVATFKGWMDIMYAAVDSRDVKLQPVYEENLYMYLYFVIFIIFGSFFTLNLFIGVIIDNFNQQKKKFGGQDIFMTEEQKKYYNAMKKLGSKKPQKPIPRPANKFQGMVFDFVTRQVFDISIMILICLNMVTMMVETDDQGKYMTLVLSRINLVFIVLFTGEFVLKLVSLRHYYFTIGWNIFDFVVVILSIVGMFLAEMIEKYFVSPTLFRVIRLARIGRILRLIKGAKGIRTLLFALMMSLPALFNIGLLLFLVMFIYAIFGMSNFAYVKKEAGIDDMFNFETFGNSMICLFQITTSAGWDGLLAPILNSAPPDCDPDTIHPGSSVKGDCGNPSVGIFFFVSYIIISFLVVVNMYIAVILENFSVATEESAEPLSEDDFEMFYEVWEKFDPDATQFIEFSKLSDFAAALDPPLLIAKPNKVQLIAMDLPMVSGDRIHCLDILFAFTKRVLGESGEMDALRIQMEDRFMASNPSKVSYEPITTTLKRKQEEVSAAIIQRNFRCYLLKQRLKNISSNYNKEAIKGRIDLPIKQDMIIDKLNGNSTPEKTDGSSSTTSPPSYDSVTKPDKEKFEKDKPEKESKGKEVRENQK

As for `CC[C@H](C)[C@@H]1NC(=O)[C@@H]2CSSC[C@@H]3NC(=O)[C@H](C(C)C)NC(=O)[C@H](CC(C)C)NC(=O)[C@H](CC(N)=O)NC(=O)[C@@H]4CCCN4C(=O)[C@H](CCCNC(=N)N)NC(=O)[C@H](CSSC[C@H](NC(=O)[C@@H](N)CC(=O)O)C(=O)N[C@@H](CC(C)C)C(=O)NCC(=O)N[C@@H](Cc4ccccc4)C(=O)N[C@@H](CCSC)C(=O)N[C@@H](CCCNC(=N)N)C(=O)N[C@@H](CCCCN)C(=O)N2)NC(=O)[C@H](CSSC[C@@H](C(=O)N[C@@H](CCCCN)C(=O)N[C@@H](Cc2ccc(O)cc2)C(=O)N[C@H](C(=O)N[C@@H](Cc2ccccc2)C(N)=O)C(C)C)NC(=O)[C@H](Cc2c[nH]c4ccccc24)NC(=O)[C@H](CC(=O)O)NC(=O)[C@H](Cc2cnc[nH]2)NC(=O)[C@H]([C@@H](C)O)NC(=O)[C@H](CCCNC(=N)N)NC(=O)[C@H](CO)NC3=O)NC(=O)[C@H](CCCCN)NC(=O)[C@H](CC(=O)O)NC(=O)[C@H](CC(N)=O)NC(=O)[C@H](CC(=O)O)NC(=O)[C@@H]2CCCN2C1=O` [SEQ ID NO: 750, [Asp28]GpTx-1] (H-DCLGFMRKCIPDNDKCCRPNLVCSRTHDWCKYVF-NH2; disulfide 2-17, 9-23, 16-30), the IC50 (use-dependent block, hNav1.3) came to 770 nM.

In the case of `CSCC[C@@H]1NC(=O)[C@H](Cc2ccccc2)NC(=O)CNC(=O)[C@H](CC(C)C)NC(=O)[C@@H](NC(=O)[C@@H](N)CC(=O)O)CSSC[C@@H]2NC(=O)[C@@H]3CSSC[C@@H](C(=O)N[C@@H](CCCCN)C(=O)N[C@@H](Cc4ccc(O)cc4)C(=O)N[C@H](C(=O)N[C@@H](Cc4ccccc4)C(N)=O)C(C)C)NC(=O)[C@H](Cc4c[nH]c5ccccc45)NC(=O)[C@H](CCCCN)NC(=O)[C@H](Cc4cnc[nH]4)NC(=O)[C@H]([C@@H](C)O)NC(=O)[C@H](CCCNC(=N)N)NC(=O)[C@H](CO)NC(=O)[C@H](CSSC[C@H](NC(=O)[C@H](CCCCN)NC(=O)[C@H](CCCNC(=N)N)NC1=O)C(=O)N[C@@H](CCSC)C(=O)N1CCC[C@H]1C(=O)N[C@@H](CC(=O)O)C(=O)N[C@@H](CC(N)=O)C(=O)N[C@@H](CC(=O)O)C(=O)N[C@@H](CCCCN)C(=O)N3)NC(=O)[C@H](C(C)C)NC(=O)[C@H](CC(C)C)NC(=O)[C@H](CC(N)=O)NC(=O)[C@@H]1CCCN1C(=O)[C@H](CCCNC(=N)N)NC2=O` [compound 307] (H-DCLGFMRKCMPDNDKCCRPNLVCSRTHKWCKYVF-NH2; disulfide 2-17, 9-23, 16-30), under “Use”, the IC50 is 100 nM.

Regarding `CSCC[C@@H]1NC(=O)[C@H](Cc2ccccc2)NC(=O)CNC(=O)[C@H](CC(C)C)NC(=O)[C@@H](NC(=O)[C@@H](N)CC(=O)O)CSSC[C@@H]2NC(=O)[C@@H]3CSSC[C@@H](C(=O)N[C@@H](CCCCN)C(=O)N[C@@H](Cc4ccc(O)cc4)C(=O)N[C@H](C(=O)N[C@@H](Cc4ccccc4)C(N)=O)C(C)C)NC(=O)[C@H](Cc4c[nH]c5ccccc45)NC(=O)[C@H](CCCCN)NC(=O)[C@H](Cc4cnc[nH]4)NC(=O)[C@H]([C@@H](C)O)NC(=O)[C@H](CCCNC(=N)N)NC(=O)[C@H](CO)NC(=O)[C@H](CSSC[C@H](NC(=O)[C@H](CCCCN)NC(=O)[C@H](CCCNC(=N)N)NC1=O)C(=O)N[C@@H]([C@@H](C)O)C(=O)N1CCC[C@H]1C(=O)N[C@@H](CC(=O)O)C(=O)N[C@@H](CC(N)=O)C(=O)N[C@@H](CC(=O)O)C(=O)N[C@@H](CCCCN)C(=O)N3)NC(=O)[C@H](C(C)C)NC(=O)[C@H](CC(C)C)NC(=O)[C@H](CC(N)=O)NC(=O)[C@@H]1CCCN1C(=O)[C@H](CCCNC(=N)N)NC2=O` [compound 309] (H-DCLGFMRKCTPDNDKCCRPNLVCSRTHKWCKYVF-NH2; disulfide 2-17, 9-23, 16-30), the IC50 (Use) came out at 60 nM.

Take `CC[C@H](C)[C@@H]1NC(=O)[C@@H]2CSSC[C@@H]3NC(=O)[C@H](C(C)C)NC(=O)[C@H](CC(C)C)NC(=O)[C@H](CC(N)=O)NC(=O)[C@@H]4CCCN4C(=O)[C@H](CCCNC(=N)N)NC(=O)[C@H](CSSC[C@H](NC(=O)[C@@H](N)CC(=O)O)C(=O)N[C@@H](CC(C)C)C(=O)NCC(=O)N[C@@H](Cc4ccccc4)C(=O)N[C@@H](Cc4ccccc4)C(=O)N[C@@H](CCCNC(=N)N)C(=O)N[C@@H](CCCCN)C(=O)N2)NC(=O)[C@H](CSSC[C@@H](C(=O)N[C@@H](CCCCN)C(=O)N[C@@H](Cc2cn(CCOCCOCCOCCOCCOCCOCCOCCOCCOCCOCCN)nn2)C(=O)N[C@H](C(=O)N[C@@H](Cc2cccc4ccccc24)C(N)=O)C(C)C)NC(=O)[C@H](Cc2c[nH]c4ccccc24)NC(=O)[C@H](CCCCN)NC(=O)[C@H](Cc2c[nH]cn2)NC(=O)[C@H]([C@@H](C)O)NC(=O)[C@H](CCCNC(=N)N)NC(=O)[C@H](CO)NC3=O)NC(=O)[C@H](CCCCN)NC(=O)[C@H](CC(=O)O)NC(=O)[C@H](CC(N)=O)NC(=O)[C@H](CC(=O)O)NC(=O)[C@@H]2CCCN2C1=O` [compound 559]: the Nav1.7/Nav1.3 is 2.3.

In the case of `CC[C@H](C)[C@@H]1NC(=O)[C@@H]2CSSC[C@@H]3NC(=O)[C@H](C(C)C)NC(=O)[C@H](CC(C)C)NC(=O)[C@H](CC(N)=O)NC(=O)[C@@H]4CCCN4C(=O)[C@H](CCCNC(=N)N)NC(=O)[C@H](CSSC[C@H](NC(=O)[C@@H](N)CC(=O)O)C(=O)N[C@@H](CC(C)C)C(=O)NCC(=O)N[C@@H](Cc4ccccc4)C(=O)N[C@@H](Cc4ccccc4)C(=O)N[C@@H](CCCNC(=N)N)C(=O)N[C@@H](CCCCN)C(=O)N2)NC(=O)[C@H](CSSC[C@@H](C(=O)N[C@@H](CCCCN)C(=O)N[C@@H](Cc2ccc(O)cc2)C(=O)N[C@H](C(=O)N[C@@H](Cc2ccccc2)C(=O)N[C@@H](Cc2cn(CCOCCOCCOCCOCCOCCOCCOCCOCCOCCOCCN)nn2)C(N)=O)C(C)C)NC(=O)[C@H](Cc2c[nH]c4ccccc24)NC(=O)[C@H](CCCCN)NC(=O)[C@H](Cc2c[nH]cn2)NC(=O)[C@H](CC(C)C)NC(=O)[C@H](CCCNC(=N)N)NC(=O)[C@H](CO)NC3=O)NC(=O)[C@H](CCCCN)NC(=O)[C@H](CC(=O)O)NC(=O)[C@H](CC(N)=O)NC(=O)[C@H](CC(=O)O)NC(=O)[C@@H]2CCCN2C1=O` [compound 588], the Nav1.7/Nav1.3 was 3.3.

Consider `CC[C@H](C)[C@@H]1NC(=O)[C@@H]2CSSC[C@@H]3NC(=O)[C@H](C(C)C)NC(=O)[C@H](CC(C)C)NC(=O)[C@H](CC(N)=O)NC(=O)[C@@H]4CCCN4C(=O)[C@H](CCCNC(=N)N)NC(=O)[C@H](CSSC[C@H](NC(=O)[C@@H](N)CC(=O)O)C(=O)N[C@@H](CC(C)C)C(=O)NCC(=O)N[C@H](C)C(=O)N[C@@H](CC(C)C)C(=O)N[C@@H](CCCNC(=N)N)C(=O)N[C@@H](CCCCN)C(=O)N2)NC(=O)[C@H](CSSC[C@@H](C(=O)N[C@@H](CCCCN)C(=O)N[C@@H](Cc2ccc(O)cc2)C(=O)N[C@H](C(=O)N[C@@H](Cc2ccccc2)C(N)=O)C(C)C)NC(=O)[C@H](Cc2c[nH]c4ccccc24)NC(=O)[C@H](CCCCN)NC(=O)[C@H](Cc2c[nH]cn2)NC(=O)[C@H]([C@@H](C)O)NC(=O)[C@H](CCCNC(=N)N)NC(=O)[C@H](CO)NC3=O)NC(=O)[C@H](CCCCN)NC(=O)[C@H](CC(=O)O)NC(=O)[C@H](CC(N)=O)NC(=O)[C@H](CC(=O)O)NC(=O)[C@@H]2CCCN2C1=O` [compound 633], for which, where the note is “use-dependent protocol, hNav1.3”, the IC50 amounted to 11500 nM.

These data come from patent US9340590B2 (priority 2011, dated 2016).
